According to patent US8314234B2, “Bicyclic pyrimidine kinase inhibitors” (Janssen Pharmaceutica N.V., priority 2006, dated 2012):

What was measured:
VEGFR2 = VEGFR2 (Rattus norvegicus, UniProt O08775); assay: VEGFR2 screening assay; assay type: biochemical
Description: A kinase reaction mixture was prepared containing 50 mM Tris-HCl pH=8, 10 mM MgCl2, 0.1 mM […], 1 mM DTT, 10 μM ATP, 0.025 μM biotinylated histone-H1 peptide substrate and 0.2 μCuries per well ^33P-γ-ATP (2000-3000 Ci/mmol). 70 μL of the kinase reaction mixture was dispensed into the well of a streptavidin coated FlashPlate™ (Cat. #SMP103, NEN, Boston, Mass.).
(§1) Test compound stock in 100% DMSO (1 μL) was added to the wells resulting in a final concentration of 1% DMSO in the reaction with a 100 μL final reaction volume. Each enzyme was diluted in 50 mM Tris-HCl pH=8.0, 0.1% BSA and 30 μL was added to each well to initiate the reaction. The reaction was incubated for one hour at 30° C. At the end of the 1 hr incubation, the reaction was terminated by aspirating the mixture from the plate and washing the wells twice with PBS containing 100 mM EDTA. The biotinylated peptide substrate became immobilized on the Flashplate and the incorporation of ^33P-γ-ATP was measured by reading the plate on a scintillation counter. Inhibition of the enzymatic activity was measured by observing a reduced amount of ^33P-γ-ATP incorporated into the immobilized peptide.
The VEGF-R2 enzyme is a fusion protein containing a polyhistidine tag at the N terminus followed by amino acids 786 to 1343 of the rat VEGF-R2 kinase domain (Accession number U93306). The assay used 150 ng of the N-terminal biotinylated peptide biotin-[…]-amide SEQ ID NO: 2) (VEGF-R2) per well.
(§2) A maximum and minimum signal for the assay was determined on each plate. The percent inhibition of a test compound was calculated according to the formula: […]
For a series of test concentrations, the IC50 was derived by graphing percent inhibition against the log of the concentrations tested for a given compound with results shown in Table 2. For those compounds without an IC50, the inhibition values in percent are shown at a test concentration of 2 μM. The term “ND” means “not determined.”

[1] = system: HeLa cervical adenocarcinoma; assay: Cell Proliferation Inhibition Assay (14C-thymidine incorporation), HeLa; assay type: cell-based; settings: Homo sapiens
From the text: (§3) The ability of a test compound to inhibit unregulated cell proliferation may be determined by measuring incorporation of ^14C-labelled thymidine into newly synthesized DNA within cell lines derived from carcinomas originating from several tissues. Accordingly, the anti-proliferative effect of a compound on cells with a variety of phenotypes may be determined.
(§4) Carcinoma cell lines include those such as HeLa cervical adenocarcinoma (American Type Culture Collection (ATCC), Virginia, Cat. #CCL-2), A375 malignant melanoma (ATCC CRL-1619), SK-OV-3 ovarian adenocarcinoma (ATCC HTB-77), HCT-116 colon carcinoma (CCL-247), PC-3 prostate adenocarcinoma (ATCC CRL-1435), and MDA-MB-231 (Xenogen Corp.)
(§5) The carcinoma cells are trypsinized and counted. The cells (3000-8000 count) are added to each well of a 96-well CytoStar tissue culture treated scintillating microplate (Amersham #RPNQ0160) in complete medium (100 μL) and the plate is then incubated in complete medium for 24 hrs at 37° C. in an inert atmosphere containing 5% CO2. Test compound (1 μL) in 100% DMSO is added to the plate test-wells with DMSO only added to control-wells. The plate is incubated in complete medium for a second 24 hr period at 37° C. in an atmosphere containing 5% CO2.
(§6) An aliquot of a solution of Methyl ^14C-thymidine (56 mC/mmol) (NEN #NEC568 or Amersham #CFA532) and complete medium (20 uL to provide 0.2 μCi/well) is then added to each well and the plate is incubated for a third 24 hr period at 37° C. in an atmosphere containing 5% CO2. The plate contents are then discarded, the plate is washed twice with PBS (200 μL) and then PBS (200 μL) is added to each well. The plate is sealed and the degree of methyl ^14C-thymidine incorporation is quantified on a Packard Top Count.

CDK1 = target: T1, CDK1 (Homo sapiens, UniProt P06493); assay: CDK-1 screening assay; assay type: biochemical
T1 construct: purchased New England Biolabs, Beverly, Mass; 6020; host or cells: insect cells
T1 sequence (P06493 whole entry): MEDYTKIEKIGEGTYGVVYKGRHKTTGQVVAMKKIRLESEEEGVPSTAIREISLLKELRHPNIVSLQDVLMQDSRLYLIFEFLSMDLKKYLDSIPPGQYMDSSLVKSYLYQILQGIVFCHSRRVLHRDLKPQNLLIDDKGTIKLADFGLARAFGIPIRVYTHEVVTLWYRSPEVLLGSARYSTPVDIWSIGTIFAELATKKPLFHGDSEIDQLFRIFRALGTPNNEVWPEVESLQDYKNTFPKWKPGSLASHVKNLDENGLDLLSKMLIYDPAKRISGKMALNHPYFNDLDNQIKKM
T1 sequence (P14635 whole entry partner): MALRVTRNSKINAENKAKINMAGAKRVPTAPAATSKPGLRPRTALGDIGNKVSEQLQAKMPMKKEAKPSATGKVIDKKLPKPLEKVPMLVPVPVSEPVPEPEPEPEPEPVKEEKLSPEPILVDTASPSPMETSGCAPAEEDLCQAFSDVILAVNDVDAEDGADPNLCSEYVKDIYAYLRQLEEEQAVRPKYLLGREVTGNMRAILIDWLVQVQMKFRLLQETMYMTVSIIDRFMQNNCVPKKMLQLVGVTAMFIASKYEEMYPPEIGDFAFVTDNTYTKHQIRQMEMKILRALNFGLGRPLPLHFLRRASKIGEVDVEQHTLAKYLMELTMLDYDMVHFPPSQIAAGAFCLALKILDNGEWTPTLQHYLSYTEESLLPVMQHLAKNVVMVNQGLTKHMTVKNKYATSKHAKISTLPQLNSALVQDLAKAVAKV
Description: (§7) 70 μL of the kinase reaction mixture was dispensed into the well of a streptavidin coated FlashPlate™ (Cat. #SMP103, NEN, Boston, Mass.).
as §1, §2
(§8) The term “ND” means “not determined.”

CDK2 = target: T2, CDK2 (Homo sapiens, UniProt P24941); assay: CDK-2 screening assay; assay type: biochemical
T2 construct: purchased Upstate Biotech, Lake Placid, N.Y
Description: as §7, §1
The CDK2 enzyme in complex with cyclin A is commercially available (Upstate Biotech, Lake Placid, N.Y.).
as §2, §8

A375 malignant melanoma = assay: Cell Proliferation Inhibition Assay (14C-thymidine incorporation), A375; assay type: cell-based; settings: Homo sapiens, A-375
From the text: as §3, §4, §5, §6

HCT-116 colon carcinoma = assay: Cell Proliferation Inhibition Assay (14C-thymidine incorporation), HCT-116; assay type: cell-based; settings: Homo sapiens
From the text: as §3, §4, §5, §6

EGFR = target: T3, EGFR (Homo sapiens, UniProt P00533); assay: EGFR Kinase Assay; assay type: biochemical
T3 construct: intracellular portion of EGFR started at nucleotide 2189 (corresponding to amino acid 667) and ended at the termination codon; made in house; host or cells: Sf9 insect cells (baculovirus)
From the text: The EGFR kinase used was a fusion of Glutathione-S-Transferase (GST) and a PCR amplified intracellular portion of EGFR (NM_005228). The intracellular portion of EGFR started at nucleotide 2189 (corresponding to amino acid 667) and ended at the termination codon. The portion was PCR amplified with primers that added the lambda attB sequences to each end, recombined into an entry vector, then into a GST destination vector (as described in Gateway Technologies Manual by Invitrogen Corporation, Carlsbad, Calif.).
The destination vector was recombined in the DH10BAC strain of bacteria to produce a bacmid. The bacmid was transfected into Sf9 cells and the supernatant containing the baculovirus was collected. The GSTEGFR protein was purified using large cultures of Sf9 cells infected with stock virus. After an appropriate period of time, the cells were collected and lysed. The GSTEGFR was then purified from the lysate on Glutathione-Sepharose columns (as described by Amersham Biosciences, Buckinghamshire, United Kingdom).
The EGFR substrate was prepared by biotinylating polyGluTyr (128 mg) (Sigma, St. Louis, Mo.) in a 1×PBS buffer incubated together with a 12-fold molar excess of Sulfo-NHS-LC-Biotin on ice for at least 2 hrs. The free biotin was separated from the biotinylated polyGluTyr on a gel filtration column.
A mixture of a 10× kinase buffer (500 mM Tris at pH 8.0, 100 mM Magnesium Chloride and 1 mM Sodium Vanadate), DTT (1 mM final from 500 mM stock), ATP (5 μM final from 10 mM stock), biotinylated polyGluTyr (10 μg/μL stock), γ-^33P ATP (10 μCi/μL stock) and water was added to each well (90 μL/well) of a Streptavidin Flashplate (Perkin Elmer, Wellesley, Mass.).
Test compound in 100% DMSO (2 μL) was added to the appropriate wells. Diluted GSTEGFR (1:300 dilution in 50 mM Tris at pH 8.0 and 0.1% bovine serum albumin) (10 μL) was added to the wells to initiate the reactions.
The plates were incubated at 30° C. for 1 hr with shaking. The reacted contents were removed and the plates were sequentially washed three times with a 1×PBS stop buffer (300 μL without Magnesium and Calcium) and 100 mM EDTA. After the final wash, the same stop buffer (200 μL) was added to the wells. The plates were then sealed and read on the TopCount scintillation counter.
Test compounds were assayed in triplicate at 16 concentrations at half-log dilutions starting at 200 uM. A maximum and minimum signal for the assay was determined on each plate. The percent inhibition of a test compound was calculated according to the formula
For a series of test concentrations, the IC50 was derived by graphing percent inhibition against the log of the concentrations tested for a given compound. The percent inhibition results are shown in Table 1 at a test concentration of 2 μM. For those compounds with an IC50, the IC50 value is shown in parentheses.

VEGFR2, sequence (O08775 786-1343): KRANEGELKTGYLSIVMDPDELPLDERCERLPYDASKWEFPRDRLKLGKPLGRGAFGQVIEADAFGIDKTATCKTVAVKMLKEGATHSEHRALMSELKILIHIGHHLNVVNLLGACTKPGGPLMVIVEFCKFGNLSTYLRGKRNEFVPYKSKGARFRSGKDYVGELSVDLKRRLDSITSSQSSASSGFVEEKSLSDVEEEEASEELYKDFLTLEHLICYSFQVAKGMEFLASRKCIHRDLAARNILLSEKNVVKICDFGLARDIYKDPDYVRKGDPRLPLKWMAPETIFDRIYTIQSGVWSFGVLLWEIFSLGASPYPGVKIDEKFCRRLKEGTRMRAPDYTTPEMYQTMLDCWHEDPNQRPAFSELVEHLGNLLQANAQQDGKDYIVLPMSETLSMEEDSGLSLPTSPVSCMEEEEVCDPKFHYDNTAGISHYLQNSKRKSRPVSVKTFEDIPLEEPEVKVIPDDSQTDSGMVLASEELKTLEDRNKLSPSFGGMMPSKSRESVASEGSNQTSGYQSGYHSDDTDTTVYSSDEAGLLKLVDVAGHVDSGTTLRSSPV

Molecule	IC50 (VEGFR2) [µM]	IC50 [1] [µM]	IC50 (CDK1) [µM]	IC50 (CDK2) [µM]	IC50 (A375 malignant melanoma) [µM]	IC50 (HCT-116 colon carcinoma) [µM]	IC50 (EGFR; read-out: EGFR IC50 (value in parentheses)) [µM]	inhibition at 2 µM (EGFR; test concentration of 2 μM) [%]	EGFR Inhibition (%) (EGFR; test concentration of 2 μM)
c1nc2ccc(Nc3nc(Nc4ccc5ncsc5c4)c4cn[nH]c4n3)cc2s1 [Cpd 16, N^4,N^6-bis-benzothiazol-6-yl-1H-pyrazolo[3,4-d]pyrimidine-4,6-diamine]	0.989	13.3	5	1	8.2	8.6			
NS(=O)(=O)c1cccc(Nc2nc(Nc3cccc(S(N)(=O)=O)c3)c3cn[nH]c3n2)c1 [Cpd 22, N^4,N^6-bis-[3-(amino-sulfonyl)-phenyl]-1H-pyrazolo[3,4-d]pyrimidine-4,6-diamine]	1	100	0.475		100	100	0.2	66.7	
CC(C)C(CO)Nc1nc(Nc2ccc(S(=O)(=O)NCCO)cc2)nc2[nH]ncc12 (centres unmarked) [Cpd 14, N-(2-hydroxy-ethyl)-4-[4-(1-hydroxymethyl-2-methyl-propylamino)-1H-pyrazolo[3,4-d]pyrimidin-6-ylamino]-benzenesulfonamide]	75	100	12	3.29	100	15			
NS(=O)(=O)c1ccc(Nc2nc(Nc3ccccc3)nc3[nH]ncc23)cc1 [Cpd 6, 4-(6-phenylamino-1H-pyrazolo[3,4-d]pyrimidin-4-ylamino)-benzenesulfonamide]	4.28		2.34	1.11				40	
c1cc(N2CCNCC2)ccc1Nc1nc(OCC2CCCCC2)c2cn[nH]c2n1 [Cpd 24, (4-cyclohexylmethoxy-1H-pyrazolo[3,4-d]pyrimidin-6-yl)-(4-piperazin-1-yl-phenyl)-amine]	> 100		> 100	> 100					
NS(=O)(=O)c1ccc(Nc2nc(Nc3ccc(S(N)(=O)=O)cc3)c3cn[nH]c3n2)cc1 [Cpd 1, N^4,N^6-bis-[4-(amino-sulfonyl)-phenyl]-1H-pyrazolo[3,4-d]pyrimidine-4,6-diamine]	5	100	0.132	0.021	100	4.9			
NS(=O)(=O)c1ccc(Nc2nc(OCC3CCCCC3)c3cn[nH]c3n2)cc1 [Cpd 23, 4-(4-cyclohexylmethoxy-1H-pyrazolo[3,4-d]pyrimidin-6-ylamino)-benzenesulfonamide]	> 10	18.3			11	16.6			
O=S(=O)(NCCO)c1ccc(Nc2nc(Nc3ccc4[nH]ncc4c3)c3cnoc3n2)cc1 [Cpd 15, N-(2-hydroxy-ethyl)-4-[4-(1H-indazol-5-ylamino)-isoxazolo[5,4-d]pyrimidin-6-ylamino]-benzenesulfonamide]	1	100	1	0.18	100	15			
4-[6-(1H-indazol-5-ylamino)-1H-pyrazolo[3,4-d]pyrimidin-4-ylamino]-benzenesulfonamide [Cpd 4]	1.15		0.527	0.15					65
NS(=O)(=O)c1ccc(Nc2nc(NCc3ccccc3)c3cn[nH]c3n2)cc1 [Cpd 2, 4-(4-benzylamino-1H-pyrazolo[3,4-d]pyrimidin-6-ylamino)-benzenesulfonamide]	20		7.16	1.6					
O=S(=O)(NCCO)c1ccc(Nc2nc(Nc3ccc4[nH]ncc4c3)c3cn[nH]c3n2)cc1 [Cpd 11, N-(2-hydroxy-ethyl)-4-[4-(1H-indazol-5-ylamino)-1H-pyrazolo[3,4-d]pyrimidin-6-ylamino]-benzenesulfonamide]	1	100	0.102	0.139	100	100			
O=S(=O)(NCCO)c1ccc(Nc2nc(OCC3CCCCC3)c3cn[nH]c3n2)cc1 [Cpd 26, 4-(4-cyclohexylmethoxy-1H-pyrazolo[3,4-d]pyrimidin-6-ylamino)-N-(2-hydroxy-ethyl)-benzenesulfonamide]	2.32	4.6	0.268		8.6	5			
O=S(=O)(NCCN1CCOCC1)c1ccc(Nc2nc(OCC3CCCCC3)c3cn[nH]c3n2)cc1 [Cpd 27, 4-(4-cyclohexylmethoxy-1H-pyrazolo[3,4-d]pyrimidin-6-ylamino)-N-(2-morpholin-4-yl-ethyl)-benzenesulfonamide]	4.47	19.4	0.83		7.5	11.2			
c1ccc(Nc2nc(OCC3CCCCC3)c3cn[nH]c3n2)cc1 [Cpd 25, (4-cyclohexylmethoxy-1H-pyrazolo[3,4-d]pyrimidin-6-yl)-phenyl-amine]	> 10		> 100	> 10					
